The target of this assay is ROCK2 (Homo sapiens (Human), UniProt O75116). The assay is described as follows: Rho Kinase Inhibition Assay (IMAP fluorescence polarization). It counts as biochemical. To be noted: isolated enzyme, 10 μM ATP, 60 minutes at room temperature. As for the experimental part: Following the preincubation, 10 μM ATP was added to initiate the reaction. After 60 minutes at room temperature, Molecular Devices IMAP™ binding solution was added to bind phosphorylated substrate. After 30 minutes of incubation in the presence of the IMAP™ beads the fluorescence polarization was read and the ratio was reported as mP. IC50 results were calculated using the Prism software from Graphpad.
Chain of ROCK2 (O75116 11-552): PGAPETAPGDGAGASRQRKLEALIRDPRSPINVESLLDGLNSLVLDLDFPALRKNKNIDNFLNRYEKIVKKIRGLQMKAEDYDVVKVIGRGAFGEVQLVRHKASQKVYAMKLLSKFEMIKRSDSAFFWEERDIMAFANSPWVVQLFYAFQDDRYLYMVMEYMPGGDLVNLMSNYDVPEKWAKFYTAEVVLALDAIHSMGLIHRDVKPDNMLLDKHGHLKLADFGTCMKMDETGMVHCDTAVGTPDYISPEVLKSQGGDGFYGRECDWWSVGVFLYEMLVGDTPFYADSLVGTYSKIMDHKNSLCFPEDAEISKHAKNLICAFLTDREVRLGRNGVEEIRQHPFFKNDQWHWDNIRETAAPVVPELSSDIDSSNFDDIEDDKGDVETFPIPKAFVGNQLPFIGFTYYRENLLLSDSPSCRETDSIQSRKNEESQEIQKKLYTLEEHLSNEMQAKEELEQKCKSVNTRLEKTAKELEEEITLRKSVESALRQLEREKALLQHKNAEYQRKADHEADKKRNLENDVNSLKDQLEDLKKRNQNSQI
See Tian et al., Arch. Ophthalmol. […] Ophthalmol. Vis. […] Ophthalmol. […] Cytoskel. […] Ophthalmol. Vis. […] Ophthalmol. Vis.
Background: Fluorescence polarisation rises when a labelled molecule tumbles more slowly, as on binding a larger partner.
The IC50 is the midpoint of a concentration-inhibition curve. A lower IC50 goes with higher potency. The molecule `NCc1ccc(CN2CCCC(Nc3ccc4[nH]ncc4c3)C2)cc1` (stereo not drawn) [Compound 1.035, N-(1-(4-(aminomethyl)benzyl)piperidin-3-yl)-1H-indazol-5-amine] returned an IC50 of 208 nM. This counts as sub-micromolar.

With `OCCOc1cccc(CN2CCC[C@H](Nc3cccc4cnccc34)C2)c1` [Compound 2.036, (S)-2-(3-((3-(isoquinolin-5-ylamino)piperidin-1-yl)methyl)phenoxy)ethanol], half-maximal inhibition (IC50) required 160 nM. The IC50 values of the last two molecules are within 1.5-fold of each other.

In turn, `c1cc(CN2CCCC(Nc3ccc4[nH]ncc4c3)C2)cc(C2CC2)c1` (stereo not drawn) [Compound 1.021, N-(1-(3-cyclopropylbenzyl)piperidin-3-yl)-1H-indazol-5-amine] yielded an IC50 of 553 nM.

For `c1cc(NC2CCCN(Cc3ccc(C4CC4)cc3)C2)c2ccncc2c1` (stereo not drawn) [Compound 2.010, N-(1-(4-cyclopropylbenzyl)piperidin-3-yl)isoquinolin-5-amine], half-maximal inhibition (IC50) was put at 1240 nM.

`CCS(=O)(=O)Nc1cccc(CN2CCC[C@H](Nc3ccc4[nH]ncc4c3)C2)c1` [Compound 1.124, (S)-N-(3-((3-(1H-indazol-5-ylamino)piperidin-1-yl)methyl)phenyl)ethanesulfonamide] displayed an IC50 of 59.2 nM.

With `CN(C)CCCOc1ccc(CN2CCC(Nc3ccc4[nH]ncc4c3)C2)cc1` (stereo not drawn) [Compound 1.007, N-(1-(4-(3-(dimethylamino)propoxy)benzyl)pyrrolidin-3-yl)-1H-indazol-5-amine], the half-maximal inhibitory concentration (IC50) amounted to 3440 nM.

`Cc1n[nH]c2ccc(NC3CCCN(Cc4ccccc4)C3)cc12` (stereo not drawn) [Compound 1.049, N-(1-benzylpiperidin-3-yl)-3-methyl-1H-indazol-5-amine] came in with an IC50 of 604 nM. Against the preceding molecule, the IC50 is about 5.7-fold lower.

Turning to `c1ccc(CN2CCCC(Nc3ccc4[nH]ncc4c3)CC2)cc1` (stereo not drawn) [Compound 1.031, N-(1-benzylazepan-4-yl)-1H-indazol-5-amine], the IC50 was 1750 nM.

The molecule `CCOc1cccc(CN2CCCC(Nc3ccc4[nH]ncc4c3)C2)c1` (stereo not drawn) [Compound 1.065, N-(1-(3-ethoxybenzyl)piperidin-3-yl)-1H-indazol-5-amine] showed a 50% inhibitory concentration (IC50) of 326 nM.

For `OCCOc1cccc(CN2CCC(Nc3ccc4[nH]ncc4c3)CC2)c1` [Compound 1.130, 2-(3-((4-(1H-indazol-5-ylamino)piperidin-1-yl)methyl)phenoxy)ethanol], it took 2710 nM to reach half-maximal inhibition (IC50).

`OCCn1ccc2ccc(CN3CCCC(Nc4ccc5[nH]ncc5c4)C3)cc21` (stereo not drawn) [Compound 1.101, 2-(6-((3-(1H-indazol-5-ylamino)piperidin-1-yl)methyl)-1H-indol-1-yl)ethanol]: the half-maximal inhibitory concentration (IC50) was determined as 68.5 nM.

In turn, `NC(=O)Cn1ccc2ccc(CN3CCC[C@H](Nc4ccc5[nH]ncc5c4)C3)cc21` [Compound 1.107, (S)-2-(6-((3-(1H-indazol-5-ylamino)piperidin-1-yl)methyl)-1H-indol-1-yl)acetamide] showed a half-inhibitory concentration (IC50) of 148 nM.

On to `C#Cc1ccc(CN2CCC[C@H](Nc3ccc4[nH]ncc4c3)C2)cc1` [Compound 1.077, (S)-N-(1-(4-ethynylbenzyl)piperidin-3-yl)-1H-indazol-5-amine], for which the IC50 worked out at 53.1 nM. This IC50 lies about 2.8-fold lower than the previous one.

`FC(F)(F)c1cccc(CN2CCC(Nc3ccc4[nH]ncc4c3)C2)c1` (stereo not drawn) [Compound 1.064, N-(1-(3-(trifluoromethyl)benzyl)pyrrolidin-3-yl)-1H-indazol-5-amine] came in with an IC50 of 165 nM.

In turn, `c1cc2cc(CN3CCCC(Nc4ccc5[nH]ncc5c4)C3)ccc2s1` (stereo not drawn) [Compound 1.054, N-(1-(benzo[b]thiophen-5-ylmethyl)piperidin-3-yl)-1H-indazol-5-amine] registered an IC50 of 132 nM. The IC50 values of the last two molecules are within 1.5-fold of each other.

Molecule `CSc1ccc(CN2CCCC(Nc3cccc4cnccc34)C2)cc1` (stereo not drawn) [Compound 2.009, N-(1-(4-(methylthio)benzyl)piperidin-3-yl)isoquinolin-5-amine] came in with an IC50 of 368 nM.

On to `O=C(O)COc1cccc(CN2CCC[C@@H](Nc3ccc4[nH]ncc4c3)C2)c1` [Compound 1.125, (R)-2-(3-((3-(1H-indazol-5-ylamino)piperidin-1-yl)methyl)phenoxy)acetic acid], for which half-maximal inhibition (IC50) was put at 879 nM. Compared with the last molecule, the IC50 is about 2.4-fold higher.

For `c1ccc(-c2ccc(CN3CCCC(Nc4ccc5[nH]ncc5c4)C3)cc2)cc1` (stereo not drawn) [Compound 1.009, N-(1-(biphenyl-4-ylmethyl)piperidin-3-yl)-1H-indazol-5-amine], the IC50 worked out at 1610 nM.

Turning to `OCCC#Cc1ccc(CN2CCCC(Nc3ccc4[nH]ncc4c3)C2)cc1` (stereo not drawn) [Compound 1.043, 4-(4-((3-(1H-indazol-5-ylamino)piperidin-1-yl)methyl)phenyl)but-3-yn-1-ol], the IC50 stood at 11700 nM.

In turn, `c1cc(CN2CC[C@H](Nc3cccc4cnccc34)C2)cc(C2CC2)c1` [Compound 2.023, (S)-N-(1-(3-cyclopropylbenzyl)pyrrolidin-3-yl)isoquinolin-5-amine] returned an IC50 of 15700 nM.

`C=Cc1ccc(CN2CCCC(Nc3ccc4[nH]ncc4c3)C2)cc1` (stereo not drawn) [Compound 1.037, N-(1-(4-vinylbenzyl)piperidin-3-yl)-1H-indazol-5-amine] returned a half-maximal inhibitory concentration (IC50) of 69.5 nM.

The molecule `CSc1ccc(CN2CCC[C@@H](Nc3ccc4[nH]ncc4c3)C2)cc1` [Compound 1.074, (R)-N-(1-(4-(methylthio)benzyl)piperidin-3-yl)-1H-indazol-5-amine] yielded an IC50 of 71.6 nM.

`CCc1ccc(CN2CCCC(Nc3ccc4[nH]ncc4c3)C2)cc1` (stereo not drawn) [Compound 1.033, N-(1-(4-ethylbenzyl)piperidin-3-yl)-1H-indazol-5-amine] gave an IC50 of 86.9 nM. The IC50 values of the last two molecules are within 1.5-fold of each other.

Molecule `CC(=O)NCc1cccc(CN2CCCC(Nc3ccc4[nH]ncc4c3)C2)c1` (stereo not drawn) [Compound 1.122, N-(3-((3-(1H-indazol-5-ylamino)piperidin-1-yl)methyl)benzyl)acetamide] had an IC50 of 254 nM.

Take `CN(C)Cc1ccc(CN2CCCC(Nc3ccc4[nH]ncc4c3)C2)cc1` (stereo not drawn) [Compound 1.019, N-(1-(4-((dimethylamino)methyl)benzyl)piperidin-3-yl)-1H-indazol-5-amine]: 13400 nM corresponded to half-maximal inhibition (IC50).

Molecule `CCS(=O)(=O)Nc1cccc(CN2CCC[C@@H](Nc3ccc4[nH]ncc4c3)C2)c1` [Compound 1.123, (R)-N-(3-((3-(1H-indazol-5-ylamino)piperidin-1-yl)methyl)phenyl)ethanesulfonamide] yielded an IC50 of 135 nM. This IC50 lies about 99-fold lower than the previous one.

For the molecule `CSc1ccc(CN2CCC[C@H](Nc3ccc4[nH]ncc4c3)C2)cc1` [Compound 1.075, (S)-N-(1-(4-(methylthio)benzyl)piperidin-3-yl)-1H-indazol-5-amine], the IC50 amounted to 74.5 nM.

`Cc1cccc(CN2CCCC(Nc3ccc4[nH]ncc4c3)C2)c1` (stereo not drawn) [Compound 1.066, N-(1-(3-methylbenzyl)piperidin-3-yl)-1H-indazol-5-amine] returned an IC50 of 232 nM.

`O=C(O)COc1cccc(CN2CC[C@@H](Nc3cccc4cnccc34)C2)c1` [Compound 2.044, (R)-2-(3-((3-(isoquinolin-5-ylamino)pyrrolidin-1-yl)methyl)phenoxy)acetic acid] yielded an IC50 of 433 nM.

`OCCOc1cccc(CN2CC[C@@H](Nc3cccc4cnccc34)C2)c1` [Compound 2.039, (R)-2-(3-((3-(isoquinolin-5-ylamino)pyrrolidin-1-yl)methyl)phenoxy)ethanol]: the IC50 came out at 101 nM.

`Oc1cc(CN2CCCC(Nc3ccc4[nH]ncc4c3)C2)ccc1I` (stereo not drawn) [Compound 1.068, 5-((3-(1H-indazol-5-ylamino)piperidin-1-yl)methyl)-2-iodophenol] showed an IC50 of 660 nM.

`OCCOc1cccc(CN2CCCC(Nc3ccc4[nH]ncc4c3)C2)c1` (stereo not drawn) [Compound 1.039, 2-(3-((3-(1H-indazol-5-ylamino)piperidin-1-yl)methyl)phenoxy)ethanol] gave an IC50 of 328 nM.

`NC(=O)Cn1ccc2ccc(CN3CCCC(Nc4ccc5[nH]ncc5c4)C3)cc21` (stereo not drawn) [Compound 1.099, 2-(6-((3-(1H-indazol-5-ylamino)piperidin-1-yl)methyl)-1H-indol-1-yl)acetamide] showed an IC50 of 25.8 nM.

As for `Clc1ccc(CN2CCCC(Nc3cccc4cnccc34)C2)cc1Cl` (stereo not drawn) [Compound 2.014, N-(1-(3,4-dichlorobenzyl)piperidin-3-yl)isoquinolin-5-amine], it took 1670 nM to reach half-maximal inhibition (IC50).

In turn, `c1cc(NC2CCCN(Cc3ccc(SC4CC4)cc3)C2)c2ccncc2c1` (stereo not drawn) [Compound 2.012, N-(1-(4-(cyclopropylthio)benzyl)piperidin-3-yl)isoquinolin-5-amine] had an IC50 of 14900 nM. This IC50 lies about 8.9-fold higher than the previous one.

On to `c1cc2cc(CN3CCCC(Nc4ccc5[nH]ncc5c4)C3)ccc2o1` (stereo not drawn) [Compound 1.052, N-(1-(benzofuran-5-ylmethyl)piperidin-3-yl)-1H-indazol-5-amine], for which the IC50 is 15.3 nM.

Regarding `NC(=O)COc1cccc(CN2CC[C@@H](Nc3cccc4cnccc34)C2)c1` [Compound 2.040, (R)-2-(3-((3-(isoquinolin-5-ylamino)pyrrolidin-1-yl)methyl)phenoxy)acetamide], the IC50 stood at 273 nM.

`C#Cc1ccc(CN2CCC[C@@H](Nc3ccc4[nH]ncc4c3)C2)cc1` [Compound 1.076, (R)-N-(1-(4-ethynylbenzyl)piperidin-3-yl)-1H-indazol-5-amine] came in with a half-maximal inhibitory concentration (IC50) of 111 nM.

Molecule `O=C(O)COc1cccc(CN2CCCC(Nc3ccc4[nH]ncc4c3)C2)c1` (stereo not drawn) [Compound 1.086, 2-(3-((3-(1H-indazol-5-ylamino)piperidin-1-yl)methyl)phenoxy)acetic acid] yielded an IC50 of 310 nM. Compared with the last molecule, the IC50 is about 2.8-fold higher.

For the molecule `COc1ccc(CN2CCC(Nc3cccc4cnccc34)C2)cc1` (stereo not drawn) [Compound 2.017, N-(1-(4-methoxybenzyl)pyrrolidin-3-yl)isoquinolin-5-amine], it took 322 nM to reach half-maximal inhibition (IC50).

`Clc1ccc(CN2CCC[C@H](Nc3ccc4[nH]ncc4c3)C2)cc1Cl` [Compound 1.080, (S)-N-(1-(3,4-dichlorobenzyl)piperidin-3-yl)-1H-indazol-5-amine]: the IC50 is 162 nM.

In turn, `c1ccc(CN2CCCC(Nc3cccc4cnccc34)CC2)cc1` (stereo not drawn) [Compound 2.013, N-(1-benzylazepan-4-yl)isoquinolin-5-amine] gave an IC50 of 1490 nM.

The record behind these values is US8604218B2, “Cytoskeletal active rho kinase inhibitor compounds, composition and use” (Inspire Pharmaceuticals, Inc., priority 2006, dated 2013).
